Data as given in US6335168B1 (priority 1998, dated 2002).

Test system: A118G variant human mu opioid receptor
Format: cell-based
Settings: GIRK activation in oocytes

Q: Which “difference of EC50 values between the A118G variant and the most common mu opioid receptors” value does the source give for β-endorphin here?
A: The value was “about three”.
